Here are results for nine compounds from patent US20120121679A1, “VIRICIDAL AND MICROBICIDAL COMPOSITIONS AND USES THEREOF” (University of Georgia Research Foundation, Inc., priority 2009, published 2012).

One experiment relates to S. enteritidis. The experiment can be described thus: Reduction of S. enteritidis in water treated with organic acids and SDS. It is filed as cell-based, Salmonella enteritidis.
The next experiment has as its system yeast species. The experiment can be described thus: Effect of levulinic acids plus SDS at 21° C. on various yeast species.
Another experiment has as its system Feline Calicivirus (FCV). The experiment is described as follows: Inactivation of FCV by levulinic acid plus SDS in solution, plaque assay. The note with it: 21° C., 1 min.
A further experiment concerns Murine norovirus (MNV-1). The experiment can be described thus: Inactivation of MNV-1 by levulinic acid plus SDS in solution, plaque assay. The note with it: 21° C., 1 min.
Experiment [1] has as its system spores of Bacillus anthracis Sterne (34F2). It is filed as cell-based.
Where [2] appears, read: Candida magnoliae, inoculum […] 10^8 CFU/ml.
Setting [3] is: Debaryomyces hansenii, inoculum […] 10^7 CFU/ml.
Where [4] appears, read: Geotrichum candidum, inoculum […] 10^7 CFU/ml.
The mark [5] stands for this setting: Saccharomyces cerevisiae, inoculum […] 10^7 CFU/ml.
[6] abbreviates: Zygosaccharomyces bailii, inoculum […] 10^7 CFU/ml.

SMILES strings stand for the structures. Read-outs that look alike come from different tables or passages of the source.

With `CC(=O)O` [0.5% acetic acid, acetic acid], the “Salmonella reduction in water” value with S. enteritidis was 0.7 log CFU/ml.
As to `CC(=O)CCC(=O)O` [2.0% levulinic acids], in the experiment on yeast species (setting [2]), the “Yeast counts at 2 min” value came to 5.9 log CFU/ml, the “Yeast counts at 5 min” value is 5.9 log CFU/ml, the “Yeast counts at 20 min” value was 6.0 log CFU/ml and the “Yeast counts at 30 min” value is given as 5.9 log CFU/ml. In addition, the “Yeast counts at 60 min” value with yeast species (setting [2]) is given as 5.8 log CFU/ml.
Regarding `CCCCCCCCCCCCOS(=O)(=O)[O-].[Na+]` [1% SDS, sodium dodecyl sulfate], the “Log Reduction PFU/ml (standard deviation), FCV” value in the experiment on Feline Calicivirus (FCV) (sulfate) was −0.05 (±0.18) log PFU/ml. Moreover, the “Log Reduction PFU/ml (standard deviation), MNV-1” value in the experiment with Murine norovirus (MNV-1) (sulfate) is 0.03 (±0.12) log PFU/ml.
On to `CC(=O)CCC(=O)O` [2.0% levulinic acid, levulinic acid], for which, in the experiment with yeast species (setting [3]), the “Yeast counts at 2 min” value is on record as 4.9 log CFU/ml, the “Yeast counts at 5 min” value was determined as 4.6 log CFU/ml, the “Yeast counts at 20 min” value stood at 4.7 log CFU/ml and the “Yeast counts at 30 min” value was 3.0 log CFU/ml. In the experiment with yeast species (setting [3]), the “Yeast counts at 60 min” value amounted to 1.3 log CFU/ml. Further, in the experiment with yeast species (setting [4]), the “Yeast counts at 2 min” value worked out at 4.4 log CFU/ml, the “Yeast counts at 5 min” value is recorded as 4.3 log CFU/ml, the “Yeast counts at 20 min” value stood at 3.8 log CFU/ml and the “Yeast counts at 30 min” value was determined as 3.4 log CFU/ml. Besides, in the experiment with yeast species (setting [4]), the “Yeast counts at 60 min” value worked out at 2.0 log CFU/ml. In addition, in the experiment with yeast species (setting [5]), the “Yeast counts at 2 min” value came out at 5.5 log CFU/ml, the “Yeast counts at 5 min” value turned out to be 5.4 log CFU/ml, the “Yeast counts at 20 min” value was 5.3 log CFU/ml and the “Yeast counts at 30 min” value is 5.5 log CFU/ml. Further, the “Yeast counts at 60 min” value with yeast species (setting [5]) is 5.0 log CFU/ml. Further, in the experiment with yeast species (setting [6]), the “Yeast counts at 2 min” value stood at 5.5 log CFU/ml, the “Yeast counts at 5 min” value was 5.4 log CFU/ml, the “Yeast counts at 20 min” value worked out at 5.4 log CFU/ml and the “Yeast counts at 30 min” value is on record as 5.4 log CFU/ml. Besides, the “Yeast counts at 60 min” value with yeast species (setting [6]) is 5.3 log CFU/ml. The “Log Reduction PFU/ml (standard deviation), FCV” value in the experiment on Feline Calicivirus (FCV) (listed as 2% Levulinic acid) was 0.51 (±0.34) log PFU/ml. The “Log Reduction PFU/ml (standard deviation), MNV-1” value with Murine norovirus (MNV-1) (listed as 2% Levulinic acid) was −0.06 (±0.17) log PFU/ml.
`CCCCCCCCCCCCOS(=O)(=O)[O-].[Na+]` [1.0% SDS]: in the experiment with yeast species (setting [2]), the “Yeast counts at 2 min” value was 3.3 log CFU/ml, the “Yeast counts at 5 min” value came to 3.2 log CFU/ml, the “Yeast counts at 20 min” value is 2.7 log CFU/ml and the “Yeast counts at 30 min” value came out at 3.0 log CFU/ml. For the same compound, the “Yeast counts at 60 min” value in the experiment with yeast species (setting [2]) was determined as 3.1 log CFU/ml. Moreover, in the experiment with yeast species (setting [3]), the “Yeast counts at 2 min” value is 4.1 log CFU/ml, the “Yeast counts at 5 min” value is listed as 4.5 log CFU/ml, the “Yeast counts at 20 min” value was 4.5 log CFU/ml and the “Yeast counts at 30 min” value amounted to 4.5 log CFU/ml. For the same compound, the “Yeast counts at 60 min” value with yeast species (setting [3]) was found to be 4.4 log CFU/ml. In the experiment with yeast species (setting [4]), the “Yeast counts at 2 min” value is listed as 3.3 log CFU/ml, the “Yeast counts at 5 min” value is given as 3.5 log CFU/ml, the “Yeast counts at 20 min” value stood at 3.5 log CFU/ml and the “Yeast counts at 30 min” value is listed as 3.4 log CFU/ml. Further, in the experiment on yeast species (setting [4]), the “Yeast counts at 60 min” value stood at 3.3 log CFU/ml. Further, in the experiment on yeast species (setting [5]), the “Yeast counts at 2 min” value came out at 2.6 log CFU/ml, the “Yeast counts at 5 min” value turned out to be 2.3 log CFU/ml, the “Yeast counts at 20 min” value is given as 2.7 log CFU/ml and the “Yeast counts at 30 min” value is recorded as 2.3 log CFU/ml. In the experiment with yeast species (setting [5]), the “Yeast counts at 60 min” value was 2.4 log CFU/ml. In the experiment with yeast species (setting [6]), the “Yeast counts at 2 min” value is 4.6 log CFU/ml, the “Yeast counts at 5 min” value turned out to be 4.6 log CFU/ml, the “Yeast counts at 20 min” value turned out to be 4.5 log CFU/ml and the “Yeast counts at 30 min” value was 4.5 log CFU/ml. Further, the “Yeast counts at 60 min” value in the experiment with yeast species (setting [6]) is given as 4.4 log CFU/ml.
On to `CCCCCCCCCCCCOS(=O)(=O)[O-].[Na+]` [0.5% SDS, sodium dodecyl sulfate], for which, in the experiment on Feline Calicivirus (FCV) (sulfate), the “Log Reduction PFU/ml (standard deviation), FCV” value is −0.09 (±0.27) log PFU/ml. The “Log Reduction PFU/ml (standard deviation), MNV-1” value in the experiment on Murine norovirus (MNV-1) (sulfate) was 0.13 (±0.20) log PFU/ml.
For `CCCCCCCCCCCCOS(=O)(=O)[O-].[Na+]` [2% SDS, sodium dodecyl sulfate], the “Recovery levels over time” value in experiment [1] (Experiment A3) is recorded as “did not decrease”. Moreover, the “CFU/ml % recovery (as compared to control flask F)” value (from here on “CFU/ml % recovery”) in experiment [1] (Experiment A3, 0 min) was found to be 119%; in experiment [1] (Experiment A3, 10 min), 65%; in experiment [1] (Experiment A3, 45 min) it was 94%; in experiment [1] (Experiment A3, 90 min), 144%; in experiment [1] (Experiment A3, 180 min), 95%; in experiment [1] (Experiment A4 absent heat, RT, 0 min) it was 85%. The “CFU/ml % recovery” value is given as 90% in experiment [1] (Experiment A4 absent heat, RT, 1 h); 87% in experiment [1] (Experiment A4 absent heat, RT, 2 h); 98% in experiment [1] (Experiment A4 absent heat, RT, 3 h); 79% in experiment [1] (Experiment A4 absent heat, RT, 4 h); 48% in experiment [1] (Experiment A4 with heat, 65° C., 0 min); 53% in experiment [1] (Experiment A4 with heat, 65° C., 1 h). The “CFU/ml % recovery” value in experiment [1] (Experiment A4 with heat, 65° C., 2 h) turned out to be 74%; in experiment [1] (Experiment A4 with heat, 65° C., 3 h), 68%; in experiment [1] (Experiment A4 with heat, 65° C., 4 h), 114%; in experiment [1] (Experiment A5 absent heat, RT, 0 min), 122%; in experiment [1] (Experiment A5 absent heat, RT, 1 h) it was 117%; in experiment [1] (Experiment A5 absent heat, RT, 2 h), 103%. Moreover, the “CFU/ml % recovery” value in experiment [1] (Experiment A5 absent heat, RT, 3 h) is recorded as 113%; in experiment [1] (Experiment A5 absent heat, RT, 4 h) it was 103%; in experiment [1] (Experiment A5 with heat, 65° C., 0 min), 71%; in experiment [1] (Experiment A5 with heat, 65° C., 1 h), 69%; in experiment [1] (Experiment A5 with heat, 65° C., 2 h), 53%; in experiment [1] (Experiment A5 with heat, 65° C., 3 h), 71%. The “CFU/ml % recovery” value in experiment [1] (Experiment A5 with heat, 65° C., 4 h) was 54%. Also, the “effectiveness compared with water control F” value in experiment [1] (Experiments A4, A5) was “not more effective than the water control F”. Moreover, the “Log Reduction PFU/ml (standard deviation), FCV” value in the experiment with Feline Calicivirus (FCV) (sulfate) was −0.05 (±0.22) log PFU/ml. Besides, in the experiment with Murine norovirus (MNV-1) (sulfate), the “Log Reduction PFU/ml (standard deviation), MNV-1” value is listed as −0.23 (±0.59) log PFU/ml.
Turning to `CC(=O)CCC(=O)O` [1.0% levulinic acid, levulinic acid], the “Salmonella reduction in water” value in the experiment with S. enteritidis (within 30 minutes, listed as 1% by weight levulinic acid) is given as no more than 1 log CFU/ml. Further, in the experiment with Feline Calicivirus (FCV) (listed as 1% Levulinic acid), the “Log Reduction PFU/ml (standard deviation), FCV” value is given as 0.32 (±0.19) log PFU/ml. Also, in the experiment with Murine norovirus (MNV-1) (listed as 1% Levulinic acid), the “Log Reduction PFU/ml (standard deviation), MNV-1” value was −0.04 (±0.23) log PFU/ml.
Turning to `CC(=O)CCC(=O)O` [0.5% levulinic acid, levulinic acid], the “Log Reduction PFU/ml (standard deviation), FCV” value in the experiment on Feline Calicivirus (FCV) is 0.09 (±0.16) log PFU/ml. In addition, in the experiment with Murine norovirus (MNV-1), the “Log Reduction PFU/ml (standard deviation), MNV-1” value is recorded as 0.09 (±0.38) log PFU/ml.
